# Results from ChEMBL document CHEMBL1141518, “Novel non-peptidic and small-sized BACE1 inhibitors” (Bioorg Med Chem Lett, 2008).
# Active and inactive are the calls of the source. No cut-off for these calls is given here.
# Columns and labels:
# Beta-secretase 1 [1] = target: T1, Beta-secretase 1 (Homo sapiens, UniProt P56817); assay: Inhibition of human recombinant BACE1 at 0.2 uM by FRET assay
# Beta-secretase 1 [2] = target: T1, Beta-secretase 1; assay: Inhibition of human recombinant BACE1 at 2 uM by FRET assay
# Beta-secretase 1 [3] = target: T1, Beta-secretase 1
# Description: (§1) Inhibition of human recombinant BACE1 by FRET assay
# Beta-secretase 1 [4] = target: T1, Beta-secretase 1; remark: listed apart in the source
# Description: as §1
# T1 sequence (P56817 whole entry): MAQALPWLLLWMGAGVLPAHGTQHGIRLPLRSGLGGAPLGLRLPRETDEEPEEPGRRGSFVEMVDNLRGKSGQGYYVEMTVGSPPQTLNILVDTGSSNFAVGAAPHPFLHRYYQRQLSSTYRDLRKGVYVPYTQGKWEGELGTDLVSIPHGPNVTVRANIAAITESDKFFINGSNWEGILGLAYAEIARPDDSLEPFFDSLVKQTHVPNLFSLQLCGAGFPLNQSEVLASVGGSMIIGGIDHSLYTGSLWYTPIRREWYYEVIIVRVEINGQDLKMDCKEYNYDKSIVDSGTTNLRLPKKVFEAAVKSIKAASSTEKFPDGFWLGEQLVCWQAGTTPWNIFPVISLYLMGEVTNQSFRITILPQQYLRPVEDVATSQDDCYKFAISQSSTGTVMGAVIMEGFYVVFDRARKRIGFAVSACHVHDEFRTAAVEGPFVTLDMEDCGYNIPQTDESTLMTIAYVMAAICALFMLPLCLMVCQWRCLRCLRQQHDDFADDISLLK
Structure (SMILES),inhibition (Beta-secretase 1 [2]),also measured
O=C(N[C@@H](Cc1ccccc1)[C@H](O)C(=O)Nc1cccc(-c2nn[nH]n2)c1)c1cccc(C(=O)N2COC[C@@H]2c2ccccc2)n1,93%,inhibition (Beta-secretase 1 [1]): 63%
C[C@@H](NC(=O)c1cc(=O)cc(C(=O)N[C@@H](Cc2ccccc2)[C@H](O)C(=O)Nc2cccc(-c3nn[nH]n3)c2)[nH]1)c1ccccc1,51%,
CC(C)(NC(=O)c1cc(OS(C)(=O)=O)cc(C(=O)N[C@@H](Cc2ccccc2)[C@H](O)C(=O)Nc2cccc(-c3nn[nH]n3)c2)n1)c1ccccc1,84%,
CS(=O)(=O)Oc1cc(C(=O)N[C@@H](Cc2ccccc2)[C@H](O)C(=O)Nc2cccc(-c3nn[nH]n3)c2)nc(C(=O)N2COC[C@@H]2c2ccccc2)c1,96%,inhibition (Beta-secretase 1 [1]): 73%
C[C@@H](NC(=O)c1cccc(C(=O)N[C@@H](Cc2ccccc2)[C@H](O)C(=O)Nc2cccc(-c3nn[nH]n3)c2)n1)c1ccccc1,66%,
O=C(N[C@@H](Cc1ccccc1)[C@H](O)C(=O)Nc1cccc(-c2nnn[nH]2)c1)c1cccc(C(=O)N2COC[C@@H]2c2ccccc2)n1,,IC50 (Beta-secretase 1 [3]): 0.14 µM
CC(C)(NC(=O)c1cc(=O)cc(C(=O)N[C@@H](Cc2ccccc2)[C@H](O)C(=O)Nc2cccc(-c3nn[nH]n3)c2)[nH]1)c1ccccc1,65%,
O=C(N[C@@H](Cc1ccccc1)[C@H](O)C(=O)Nc1cccc(-c2nnn[nH]2)c1)c1cc(O)cc(C(=O)N2COC[C@@H]2c2ccccc2)n1,,IC50 (Beta-secretase 1 [3]): 0.36 µM
O=C(N[C@@H](Cc1ccccc1)[C@H](O)C(=O)Nc1cccc(-c2nn[nH]n2)c1)c1cc(=O)cc(C(=O)N2COC[C@@H]2c2ccccc2)[nH]1,83%,inhibition (Beta-secretase 1 [1]): 36%
C[C@@H](NC(=O)c1cc(=O)cc(C(=O)N[C@@H](Cc2ccccc2)[C@H](O)C(=O)Nc2cccc(-c3nn[nH]n3)c2)o1)c1ccccc1,70%,
CC(C)(NC(=O)c1cc(=O)cc(C(=O)N[C@@H](Cc2ccccc2)[C@H](O)C(=O)Nc2cccc(-c3nn[nH]n3)c2)o1)c1ccccc1,81%,
CCCN(CCC)C(=O)c1cccc(C(=O)N[C@@H](Cc2ccccc2)[C@@H](O)C(=O)Nc2cccc(C(=O)O)c2)n1,,Activity (Beta-secretase 1 [4]): inactive
CC(C)(NC(=O)c1cccc(C(=O)N[C@@H](Cc2ccccc2)[C@H](O)C(=O)Nc2cccc(-c3nn[nH]n3)c2)n1)c1ccccc1,69%,
O=C(N[C@@H](Cc1ccccc1)[C@H](O)C(=O)Nc1cccc(-c2nn[nH]n2)c1)c1cc(=O)cc(C(=O)N2COC[C@@H]2c2ccccc2)o1,96%,inhibition (Beta-secretase 1 [1]): 78%; IC50 (Beta-secretase 1 [3]): 0.05 µM
CS(=O)(=O)Oc1cc(C(=O)N[C@@H](Cc2ccccc2)[C@H](O)C(=O)Nc2cccc(-c3nnn[nH]3)c2)nc(C(=O)N2COC[C@@H]2c2ccccc2)c1,,IC50 (Beta-secretase 1 [3]): 0.096 µM
